Measured values: PubChem BioAssay AID328 (DTP/NCI, 2004)
Values joined by “and” are separate entries in the source; they are usually repeats but may differ in a detail not shown here. Identical values can stand only once. Toxic doses and inconclusive results are not listed.

Tested on: BDF1 mice, P388 leukemia ip, median survival T/C
Assay: NCI In Vivo Anticancer Drug Screen. Data for tumor model P388 Leukemia (intraperitoneal) in B6D2F1 (BDF1) mice
Details: endpoint: median survival time, higher = longer survival
In short: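 Read-out is survival of treated animals expressed relative to the vehicle group, as a T/C ratio.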

[1] = dose: 100.0 mg/kg/injection, schedule: Q01DX001 (ip), vehicle: Klucel (hydroxypropylcellulose) (HPC)
[2] = dose: 200.0 mg/kg/injection, schedule: Q01DX001 (ip), vehicle: Klucel (hydroxypropylcellulose) (HPC)
[3] = dose: 400.0 mg/kg/injection, schedule: Q01DX001 (ip), vehicle: Klucel (hydroxypropylcellulose) (HPC)
[4] = dose: 50.0 mg/kg/injection, schedule: Q01DX009 (ip), vehicle: saline with Tween-80
[5] = dose: 100.0 mg/kg/injection, schedule: Q01DX009 (ip), vehicle: saline with Tween-80
[6] = dose: 200.0 mg/kg/injection, schedule: Q01DX009 (ip), vehicle: saline with Tween-80
[7] = dose: 100.0 mg/kg/injection, schedule: Q01DX009 (ip), vehicle: saline
[8] = dose: 100.0 mg/kg/injection, schedule: Q04DX003 (ip), vehicle: saline
[9] = dose: 100.0 mg/kg/injection, schedule: Q04DX003 (ip), vehicle: Klucel (hydroxypropylcellulose) (HPC)
[10] = dose: 200.0 mg/kg/injection, schedule: Q04DX003 (ip), vehicle: Klucel (hydroxypropylcellulose) (HPC)
[11] = dose: 400.0 mg/kg/injection, schedule: Q04DX003 (ip), vehicle: Klucel (hydroxypropylcellulose) (HPC)
[12] = dose: 50.0 mg/kg/injection, schedule: Q01DX009 (ip), vehicle: Klucel (hydroxypropylcellulose) (HPC)
[13] = dose: 100.0 mg/kg/injection, schedule: Q01DX001 (ip), vehicle: saline
[14] = dose: 50.0 mg/kg/injection, schedule: Q01DX001 (ip), vehicle: saline

`CCCn1c(=S)[nH]c2ccccc2c1=O` was tested, and the T/C [1] was 100 % of control, the T/C [2] was 100 % of control and the T/C [3] was 100 % of control.

`CCSC1(SCC)C(=O)OC2=C(CCCC2)C1N1CCOCC1` (stereo not given) was tested, and the T/C [4] was 99 % of control, the T/C [5] was 99 % of control and the T/C [6] was 94 % of control.

With `CC1(C)N=C(N)N=C(N)N1c1ccc(OCC(=O)N2CCOCC2)c(Cl)c1` the T/C (dose: 66.0 mg/kg/injection, schedule: Q01DX009 (ip), vehicle: saline) was 107 % of control, the T/C (dose: 100.0 mg/kg/injection, schedule: Q01DX009 (ip), vehicle: saline sonified) was 172 % of control and the T/C [7] was 103 % of control. For the same molecule, the T/C (dose: 150.0 mg/kg/injection, schedule: Q01DX009 (ip), vehicle: saline) was 111 % of control.

For `O=NN(CCCl)C(=O)NC1C2CC3CC(C2)CC1C3` (stereo not given), the T/C (dose: 5.56 mg/kg/injection, schedule: Q01DX009 (ip), vehicle: other) was 207 % of control, the T/C (dose: 8.3 mg/kg/injection, schedule: Q04DX003 (ip), vehicle: other) was 159 % of control and the T/C (dose: 8.33 mg/kg/injection, schedule: Q01DX009 (ip), vehicle: other) was 287 % of control. The T/C (dose: 12.5 mg/kg/injection, schedule: Q01DX009 (ip), vehicle: other) was 281 % of control and 305 % of control, the T/C (dose: 12.5 mg/kg/injection, schedule: Q04DX003 (ip), vehicle: other) was 263 % of control and the T/C (dose: 18.7 mg/kg/injection, schedule: Q01DX009 (ip), vehicle: other) was 188 % of control. The T/C (dose: 18.7 mg/kg/injection, schedule: Q04DX003 (ip), vehicle: other) was 222 % of control, the T/C (dose: 25.0 mg/kg/injection, schedule: Q01DX009 (ip), vehicle: other) was 231 % of control and the T/C (dose: 50.0 mg/kg/injection, schedule: Q01DX009 (ip), vehicle: other) was 100 % of control.

`CN(CCC#N)C1=CCCC1` was tested, and the T/C (dose: 50.0 mg/kg/injection, schedule: Q04DX003 (ip), vehicle: saline) was 100 % of control, the T/C [8] was 100 % of control and the T/C (dose: 200.0 mg/kg/injection, schedule: Q04DX003 (ip), vehicle: saline) was 100 % of control.

`O=[N+]([O-])c1ccccc1C=Nc1ccccc1` was tested, and the T/C [1] was 100 % of control, the T/C [7] was 105 % of control and the T/C [9] was 100 % of control. For the same molecule, the T/C [2] was 104 % of control, the T/C (dose: 200.0 mg/kg/injection, schedule: Q01DX009 (ip), vehicle: saline) was 90 % of control and the T/C [10] was 110 % of control. The T/C [3] was 95 % of control, the T/C (dose: 400.0 mg/kg/injection, schedule: Q01DX009 (ip), vehicle: saline) was 90 % of control and the T/C [11] was 100 % of control.

For `OC(CBr)C(O)C(O)C(O)CBr` (stereo not given), the T/C [12] was 105 % of control, the T/C (dose: 62.5 mg/kg/injection, schedule: Q01DX010 (ip), vehicle: saline) was 104 % of control and the T/C (dose: 125.0 mg/kg/injection, schedule: Q01DX001 (ip), vehicle: carboxymethylcellulose (CMC)) was 120 % of control. The T/C (dose: 125.0 mg/kg/injection, schedule: Q01DX010 (ip), vehicle: carboxymethylcellulose (CMC)) was 105 % of control, the T/C (dose: 125.0 mg/kg/injection, schedule: Q01DX010 (ip), vehicle: saline) was 108 % of control and the T/C (dose: 250.0 mg/kg/injection, schedule: Q01DX010 (ip), vehicle: carboxymethylcellulose (CMC)) was 110 % of control. The T/C (dose: 250.0 mg/kg/injection, schedule: Q01DX010 (ip), vehicle: saline) was 91 % of control, the T/C (dose: 400.0 mg/kg/injection, schedule: Q01DX009 (ip), vehicle: Klucel (hydroxypropylcellulose) (HPC)) was 87 % of control and the T/C (dose: 1000.0 mg/kg/injection, schedule: Q01DX001 (ip), vehicle: carboxymethylcellulose (CMC)) was 170 % of control.

With `Cc1ccc(C)c2c1CCCC2=O` the T/C [4] was 86 % of control, the T/C [5] was 90 % of control and the T/C [6] was 100 % of control. The T/C (dose: 400.0 mg/kg/injection, schedule: Q01DX009 (ip), vehicle: saline with Tween-80) was 86 % of control.

With `NC(CSC(c1ccccc1)(c1ccccc1)c1ccccc1)C(=O)O` (stereo not given) the T/C (dose: 3.0 mg/kg/injection, schedule: Q01DX009 (ip), vehicle: Klucel (hydroxypropylcellulose) (HPC)) was 122 % of control, the T/C (dose: 4.8 mg/kg/injection, schedule: Q04DX003 (ip), vehicle: Klucel (hydroxypropylcellulose) (HPC)) was 108 % of control and the T/C (dose: 7.2 mg/kg/injection, schedule: Q04DX003 (ip), vehicle: Klucel (hydroxypropylcellulose) (HPC)) was 100 % of control. For the same molecule, the T/C (dose: 10.0 mg/kg/injection, schedule: Q01DX009 (ip), vehicle: Klucel (hydroxypropylcellulose) (HPC)) was 175 % of control, the T/C (dose: 14.4 mg/kg/injection, schedule: Q01DX009 (ip), vehicle: other) was 150 % of control and the T/C (dose: 16.0 mg/kg/injection, schedule: Q01DX009 (ip), vehicle: Klucel (hydroxypropylcellulose) (HPC)) was 177 % of control. For the same molecule, the T/C (dose: 24.0 mg/kg/injection, schedule: Q01DX009 (ip), vehicle: other) was 115 % of control, the T/C (dose: 25.0 mg/kg/injection, schedule: Q01DX009 (ip), vehicle: Klucel (hydroxypropylcellulose) (HPC)) was 200 % of control and 204 % of control and the T/C (dose: 25.0 mg/kg/injection, schedule: Q04DX003 (ip), vehicle: Klucel (hydroxypropylcellulose) (HPC)) was 231 % of control. The T/C (dose: 35.0 mg/kg/injection, schedule: Q01DX009 (ip), vehicle: Klucel (hydroxypropylcellulose) (HPC)) was 227 % of control, the T/C (dose: 40.0 mg/kg/injection, schedule: Q01DX009 (ip), vehicle: other) was 123 % of control and the T/C [12] was 86 % of control. The T/C (dose: 50.0 mg/kg/injection, schedule: Q04DX003 (ip), vehicle: Klucel (hydroxypropylcellulose) (HPC)) was 186 % of control, the T/C (dose: 66.0 mg/kg/injection, schedule: Q04DX003 (ip), vehicle: saline) was 272 % of control and the T/C [9] was 240 % of control. The T/C [8] was 90 % of control.

In the case of `O=S(=O)(NS(=O)(=O)c1ccc(Cl)cc1)c1ccc(Cl)cc1`, the T/C [12] is reported as 95 % of control, the T/C (dose: 100.0 mg/kg/injection, schedule: Q01DX009 (ip), vehicle: Klucel (hydroxypropylcellulose) (HPC)) is reported as 115 % of control and the T/C [9] is reported as 95 % of control. The T/C (dose: 200.0 mg/kg/injection, schedule: Q01DX009 (ip), vehicle: Klucel (hydroxypropylcellulose) (HPC)) was 115 % of control and the T/C [10] was 86 % of control.

In the case of `CC1=CC(c2ccc3c(c2)OCO3)c2c(c3ccccc3oc2=O)O1` (stereo not given), the T/C (dose: 12.5 mg/kg/injection, schedule: Q01DX009 (ip), vehicle: water) is reported as 107 % of control, the T/C (dose: 100.0 mg/kg/injection, schedule: Q04DX003 (ip), vehicle: water) is reported as 104 % of control and the T/C (dose: 200.0 mg/kg/injection, schedule: Q04DX003 (ip), vehicle: water) is reported as 98 % of control. For the same molecule, the T/C (dose: 400.0 mg/kg/injection, schedule: Q04DX003 (ip), vehicle: water) was 90 % of control.

In the case of `CC(C(Cl)c1ccccc1)S(=O)c1ccccc1` (stereo not given), the T/C [4] is reported as 108 % of control, the T/C [5] is reported as 103 % of control and the T/C [6] is reported as 105 % of control.

In the case of `OC1CC2C3C4C1C1C2C3C41` (stereo not given), the T/C [13] is reported as 95 % of control, the T/C [9] is reported as 115 % of control and the T/C (dose: 200.0 mg/kg/injection, schedule: Q01DX001 (ip), vehicle: saline) is reported as 86 % of control. The T/C [10] was 115 % of control and the T/C [11] was 90 % of control.

`CCOC(=O)C(C)(C)CN(CC(C)(C)C(=O)OCC)C(C)(C)C` was tested, and the T/C [14] was 110 % of control and the T/C [13] was 120 % of control.

For `OC(CC(O)(C(F)(F)F)C(F)(F)F)c1cccc(C(F)(F)F)c1` (stereo not given), the T/C (dose: 100.0 mg/kg/injection, schedule: Q04DX003 (ip), vehicle: other) was 100 % of control, the T/C (dose: 200.0 mg/kg/injection, schedule: Q04DX003 (ip), vehicle: other) was 104 % of control and the T/C (dose: 400.0 mg/kg/injection, schedule: Q04DX003 (ip), vehicle: other) was 95 % of control.

In the case of `CN1C(=O)C(C)(C)C(=O)C1(C)C`, the T/C (dose: 12.5 mg/kg/injection, schedule: Q01DX001 (ip), vehicle: saline) is reported as 100 % of control, the T/C (dose: 25.0 mg/kg/injection, schedule: Q01DX001 (ip), vehicle: saline) is reported as 100 % of control and the T/C [14] is reported as 100 % of control.
